Data as given in PubChem BioAssay (NCI).
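Five concentrations, 48 hours, 96-well plates. The concentration for 50% growth inhibition is given as GI50. TGI denotes the concentration required for complete inhibition of growth.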

Legend:
Assay in all cases: inhibition of tumour cell growth, NCI panel, 48 h
786-0 renal = tested on: 786-0 renal
A498 renal = tested on: A498 renal
A549 NSCLC = tested on: A549 NSCLC
ACHN renal = tested on: ACHN renal
BT-549 breast = tested on: BT-549 breast
CAKI-1 renal = tested on: CAKI-1 renal
CCRF-CEM leukemia = tested on: CCRF-CEM leukemia
COLO 205 colon = tested on: COLO 205 colon
DU-145 prostate = tested on: DU-145 prostate
EKVX NSCLC = tested on: EKVX NSCLC
HCT-116 colon = tested on: HCT-116 colon
HCT-15 colon = tested on: HCT-15 colon
HL-60(TB) leukemia = tested on: HL-60(TB) leukemia
HOP-62 NSCLC = tested on: HOP-62 NSCLC
HOP-92 NSCLC = tested on: HOP-92 NSCLC
HS 578T breast = tested on: HS 578T breast
IGROV1 ovarian = tested on: IGROV1 ovarian
K-562 leukemia = tested on: K-562 leukemia
KM12 colon = tested on: KM12 colon
LOX IMVI melanoma = tested on: LOX IMVI melanoma
M14 melanoma = tested on: M14 melanoma
MCF7 breast = tested on: MCF7 breast
MDA-MB-231 breast = tested on: MDA-MB-231 breast
MDA-MB-435 = tested on: MDA-MB-435
NCI-H23 lung = tested on: NCI-H23 lung
NCI-H460 lung = tested on: NCI-H460 lung
NCI-H522 lung = tested on: NCI-H522 lung
NCI/ADR-RES ovarian = tested on: NCI/ADR-RES ovarian
OVCAR-3 ovarian = tested on: OVCAR-3 ovarian
OVCAR-4 ovarian = tested on: OVCAR-4 ovarian
OVCAR-5 ovarian = tested on: OVCAR-5 ovarian
OVCAR-8 ovarian = tested on: OVCAR-8 ovarian
PC-3 prostate = tested on: PC-3 prostate
RPMI-8226 leukemia = tested on: RPMI-8226 leukemia
RXF 393 renal = tested on: RXF 393 renal
SF-268 CNS = tested on: SF-268 CNS
SF-295 CNS = tested on: SF-295 CNS
SF-539 CNS = tested on: SF-539 CNS
SK-MEL-2 melanoma = tested on: SK-MEL-2 melanoma
SK-MEL-28 melanoma = tested on: SK-MEL-28 melanoma
SK-MEL-5 melanoma = tested on: SK-MEL-5 melanoma
SK-OV-3 ovarian = tested on: SK-OV-3 ovarian
SN12C renal = tested on: SN12C renal
SNB-19 CNS = tested on: SNB-19 CNS
SR leukemia = tested on: SR leukemia
SW-620 colon = tested on: SW-620 colon
T-47D breast = tested on: T-47D breast
TK-10 renal = tested on: TK-10 renal
U251 CNS = tested on: U251 CNS
UACC-257 melanoma = tested on: UACC-257 melanoma
UACC-62 melanoma = tested on: UACC-62 melanoma
UO-31 renal = tested on: UO-31 renal
HT29 colon = tested on: HT29 colon
MALME-3M melanoma = tested on: MALME-3M melanoma
MOLT-4 leukemia = tested on: MOLT-4 leukemia
NCI-H226 lung = tested on: NCI-H226 lung
SNB-75 CNS = tested on: SNB-75 CNS

Work on `COc1ccccc1Nc1nc2ccccc2c2occc12` yielded a GI50 (786-0 renal) of 15.3 µM, a TGI (786-0 renal) of 38.7 µM and a GI50 (A498 renal) of 21.2 µM. The TGI (A498 renal) was 43.1 µM, the GI50 (A549 NSCLC) was 14.6 µM and the TGI (A549 NSCLC) was 41.4 µM. It also gave a GI50 (ACHN renal) of 10.6 µM, a TGI (ACHN renal) of 24.8 µM and a GI50 (BT-549 breast) of 15.3 µM. For the same compound, the TGI (BT-549 breast) was 32.1 µM, the GI50 (CAKI-1 renal) was 18 µM and the TGI (CAKI-1 renal) was over 50 µM. For the same compound, the GI50 (CCRF-CEM leukemia) was 27.9 µM, the TGI (CCRF-CEM leukemia) was over 50 µM and the GI50 (COLO 205 colon) was 12.6 µM. It also gave a TGI (COLO 205 colon) of over 50 µM, a GI50 (DU-145 prostate) of 16.9 µM and a TGI (DU-145 prostate) of over 50 µM. For the same compound, the GI50 (EKVX NSCLC) was 11.9 µM, the TGI (EKVX NSCLC) was 28.1 µM and the GI50 (HCT-116 colon) was 20.8 µM. For the same compound, the TGI (HCT-116 colon) was over 50 µM, the GI50 (HCT-15 colon) was 10.5 µM and the TGI (HCT-15 colon) was 27 µM. The GI50 (HL-60(TB) leukemia) was 20.5 µM, the TGI (HL-60(TB) leukemia) was over 50 µM and the GI50 (HOP-62 NSCLC) was 24.5 µM. It also gave a TGI (HOP-62 NSCLC) of over 50 µM, a GI50 (HOP-92 NSCLC) of 24.1 µM and a TGI (HOP-92 NSCLC) of over 50 µM. For the same compound, the GI50 (HS 578T breast) was 22.1 µM, the TGI (HS 578T breast) was 49 µM and the GI50 (IGROV1 ovarian) was 14 µM. The TGI (IGROV1 ovarian) was 39.5 µM, the GI50 (K-562 leukemia) was 12.9 µM and the TGI (K-562 leukemia) was 28 µM. The GI50 (KM12 colon) was 16.1 µM, the TGI (KM12 colon) was over 50 µM and the GI50 (LOX IMVI melanoma) was 9.28 µM. It also gave a TGI (LOX IMVI melanoma) of 17.4 µM, a GI50 (M14 melanoma) of 17.3 µM and a TGI (M14 melanoma) of 40.4 µM. It also gave a GI50 (MCF7 breast) of 15.9 µM, a TGI (MCF7 breast) of over 50 µM and a GI50 (MDA-MB-231 breast) of 10.9 µM. It also gave a TGI (MDA-MB-231 breast) of 29.1 µM, a GI50 (MDA-MB-435) of 19.1 µM and a TGI (MDA-MB-435) of over 50 µM. For the same compound, the GI50 (NCI-H23 lung) was 16.3 µM, the TGI (NCI-H23 lung) was 35.9 µM and the GI50 (NCI-H460 lung) was 8.09 µM. For the same compound, the TGI (NCI-H460 lung) was 18 µM, the GI50 (NCI-H522 lung) was 12 µM and the TGI (NCI-H522 lung) was 29.7 µM. For the same compound, the GI50 (NCI/ADR-RES ovarian) was 13.8 µM, the TGI (NCI/ADR-RES ovarian) was 32.4 µM and the GI50 (OVCAR-3 ovarian) was 20.2 µM. It also gave a TGI (OVCAR-3 ovarian) of over 50 µM, a GI50 (OVCAR-4 ovarian) of 4.13 µM and a TGI (OVCAR-4 ovarian) of 19.3 µM. For the same compound, the GI50 (OVCAR-5 ovarian) was 19.4 µM, the TGI (OVCAR-5 ovarian) was 39.2 µM and the GI50 (OVCAR-8 ovarian) was 17.6 µM. The TGI (OVCAR-8 ovarian) was over 50 µM, the GI50 (PC-3 prostate) was 18.8 µM and the TGI (PC-3 prostate) was over 50 µM. For the same compound, the GI50 (RPMI-8226 leukemia) was 20.6 µM, the TGI (RPMI-8226 leukemia) was over 50 µM and the GI50 (RXF 393 renal) was 13.1 µM. The TGI (RXF 393 renal) was 23.9 µM, the GI50 (SF-268 CNS) was 12.3 µM and the TGI (SF-268 CNS) was over 50 µM. It also gave a GI50 (SF-295 CNS) of 20.1 µM, a TGI (SF-295 CNS) of over 50 µM and a GI50 (SF-539 CNS) of 9.76 µM. For the same compound, the TGI (SF-539 CNS) was 21.5 µM, the GI50 (SK-MEL-2 melanoma) was 12 µM and the TGI (SK-MEL-2 melanoma) was 28.2 µM. For the same compound, the GI50 (SK-MEL-28 melanoma) was 8.3 µM, the TGI (SK-MEL-28 melanoma) was 40.2 µM and the GI50 (SK-MEL-5 melanoma) was 12.2 µM. The TGI (SK-MEL-5 melanoma) was 27.7 µM, the GI50 (SK-OV-3 ovarian) was 16.1 µM and the TGI (SK-OV-3 ovarian) was over 50 µM. For the same compound, the GI50 (SN12C renal) was 10.7 µM, the TGI (SN12C renal) was 33.8 µM and the GI50 (SNB-19 CNS) was 14.5 µM. The TGI (SNB-19 CNS) was over 50 µM, the GI50 (SR leukemia) was 9.33 µM and the TGI (SR leukemia) was 20.3 µM. For the same compound, the GI50 (SW-620 colon) was 22.6 µM, the TGI (SW-620 colon) was over 50 µM and the GI50 (T-47D breast) was 27.5 µM. For the same compound, the TGI (T-47D breast) was over 50 µM, the GI50 (TK-10 renal) was 18.8 µM and the TGI (TK-10 renal) was over 50 µM. It also gave a GI50 (U251 CNS) of 14.5 µM, a TGI (U251 CNS) of over 50 µM and a GI50 (UACC-257 melanoma) of 14.3 µM. It also gave a TGI (UACC-257 melanoma) of 35.7 µM, a GI50 (UACC-62 melanoma) of 10.1 µM and a TGI (UACC-62 melanoma) of 26.4 µM. It also gave a GI50 (UO-31 renal) of 14.7 µM and a TGI (UO-31 renal) of 24 µM.
Work on `Cc1ccc(S(=O)(=O)NNC(C[N+](=O)[O-])c2ccccc2)cc1` (stereo not given) yielded a TGI (786-0 renal) of over 100 µM, a TGI (A498 renal) of 30.8 µM and a TGI (A549 NSCLC) of over 100 µM. For the same compound, the TGI (ACHN renal) was 40.9 µM, the TGI (BT-549 breast) was 34.3 µM and the TGI (CAKI-1 renal) was 47.7 µM. The TGI (CCRF-CEM leukemia) was over 100 µM, the TGI (COLO 205 colon) was 30.8 µM and the TGI (DU-145 prostate) was over 100 µM. For the same compound, the TGI (EKVX NSCLC) was over 100 µM, the TGI (HCT-116 colon) was over 100 µM and the TGI (HCT-15 colon) was 39.5 µM. It also gave a TGI (HL-60(TB) leukemia) of 21.9 µM, a TGI (HOP-62 NSCLC) of 74.5 µM and a TGI (HOP-92 NSCLC) of over 100 µM. It also gave a TGI (HS 578T breast) of over 100 µM, a TGI (HT29 colon) of 3.99 µM and a TGI (IGROV1 ovarian) of 26.7 µM. For the same compound, the TGI (K-562 leukemia) was over 100 µM, the TGI (KM12 colon) was over 100 µM and the TGI (LOX IMVI melanoma) was over 100 µM. For the same compound, the TGI (M14 melanoma) was over 100 µM, the TGI (MALME-3M melanoma) was 71.3 µM and the TGI (MCF7 breast) was 21.6 µM. For the same compound, the TGI (MDA-MB-231 breast) was 81.3 µM, the TGI (MDA-MB-435) was 11.2 µM and the TGI (MOLT-4 leukemia) was over 100 µM. For the same compound, the TGI (NCI-H226 lung) was 90 µM, the TGI (NCI-H23 lung) was over 100 µM and the TGI (NCI-H460 lung) was 45.1 µM. For the same compound, the TGI (NCI-H522 lung) was 44.1 µM, the TGI (NCI/ADR-RES ovarian) was over 100 µM and the TGI (OVCAR-3 ovarian) was 79.4 µM. The TGI (OVCAR-4 ovarian) was 32.1 µM, the TGI (OVCAR-5 ovarian) was over 100 µM and the TGI (OVCAR-8 ovarian) was 46.1 µM. It also gave a TGI (PC-3 prostate) of over 100 µM, a TGI (RPMI-8226 leukemia) of over 100 µM and a TGI (RXF 393 renal) of 11.2 µM. The TGI (SF-268 CNS) was 35.7 µM, the TGI (SF-295 CNS) was 49.2 µM and the TGI (SF-539 CNS) was 81.5 µM. For the same compound, the TGI (SK-MEL-2 melanoma) was 75 µM, the TGI (SK-MEL-5 melanoma) was 36.7 µM and the TGI (SK-OV-3 ovarian) was 46.3 µM. It also gave a TGI (SN12C renal) of over 100 µM, a TGI (SNB-19 CNS) of 30.4 µM and a TGI (SNB-75 CNS) of 41 µM. It also gave a TGI (SR leukemia) of 5.56 µM, a TGI (SW-620 colon) of over 100 µM and a TGI (T-47D breast) of 57.5 µM. For the same compound, the TGI (TK-10 renal) was 58.8 µM, the TGI (U251 CNS) was 60.5 µM and the TGI (UACC-257 melanoma) was 37.5 µM. It also gave a TGI (UACC-62 melanoma) of 85.3 µM and a TGI (UO-31 renal) of 48.6 µM.
